Numbers after ± are expanded uncertainties.
Details: Vibrating tube method

## FC(F)=C(F)C(F)(F)F [hexafluoropropene]
358 K, 4209.5 kPa, Liquid
  mass density: 959.82 ± 1.1 kg/m3
358 K, 4244 kPa, Liquid
  mass density: 962.07 ± 1.1 kg/m3
358 K, 4311.4 kPa, Liquid
  mass density: 966.64 ± 1.1 kg/m3
358 K, 4345.1 kPa, Liquid
  mass density: 968.66 ± 1.1 kg/m3
358 K, 4377.8 kPa, Liquid
  mass density: 970.84 ± 1.1 kg/m3
358 K, 4412.5 kPa, Liquid
  mass density: 972.94 ± 1.1 kg/m3
358 K, 4446.5 kPa, Liquid
  mass density: 974.92 ± 1.1 kg/m3
358 K, 4462.6 kPa, Liquid
  mass density: 975.95 ± 1.1 kg/m3
358 K, 4478.8 kPa, Liquid
  mass density: 976.81 ± 1.1 kg/m3
358 K, 4496.2 kPa, Liquid
  mass density: 977.89 ± 1.1 kg/m3
358 K, 4532.3 kPa, Liquid
  mass density: 980.04 ± 1.1 kg/m3
358 K, 4565.8 kPa, Liquid
  mass density: 981.81 ± 1.1 kg/m3
358 K, 4599.8 kPa, Liquid
  mass density: 983.7 ± 1.1 kg/m3
358 K, 4632.6 kPa, Liquid
  mass density: 985.44 ± 1.1 kg/m3
358 K, 4668.1 kPa, Liquid
  mass density: 987.45 ± 1.1 kg/m3
358 K, 4740 kPa, Liquid
  mass density: 991.23 ± 1.1 kg/m3
358 K, 4775.8 kPa, Liquid
  mass density: 993.1 ± 1.1 kg/m3
358 K, 4809.3 kPa, Liquid
  mass density: 994.65 ± 1.1 kg/m3
358 K, 4843.6 kPa, Liquid
  mass density: 996.44 ± 1.1 kg/m3
358 K, 4876.3 kPa, Liquid
  mass density: 997.93 ± 1.1 kg/m3
358 K, 4910.7 kPa, Liquid
  mass density: 999.61 ± 1.1 kg/m3
358 K, 4945.1 kPa, Liquid
  mass density: 1001.33 ± 1.1 kg/m3
358 K, 4979.1 kPa, Liquid
  mass density: 1002.85 ± 1.1 kg/m3
358 K, 5028.3 kPa, Liquid
  mass density: 1005.04 ± 1.1 kg/m3
358 K, 5084.7 kPa, Liquid
  mass density: 1007.62 ± 1.1 kg/m3
358 K, 5195.4 kPa, Liquid
  mass density: 1012.4 ± 1.1 kg/m3
358 K, 5249.7 kPa, Liquid
  mass density: 1014.83 ± 1.1 kg/m3
358 K, 5306.8 kPa, Liquid
  mass density: 1017.1 ± 1.1 kg/m3
358 K, 5363.6 kPa, Liquid
  mass density: 1019.45 ± 1.1 kg/m3
358 K, 5416.2 kPa, Liquid
  mass density: 1021.54 ± 1.1 kg/m3
358 K, 5474.6 kPa, Liquid
  mass density: 1023.85 ± 1.1 kg/m3
358 K, 5533.9 kPa, Liquid
  mass density: 1026.1 ± 1.1 kg/m3
358 K, 5592 kPa, Liquid
  mass density: 1028.23 ± 1.1 kg/m3
358 K, 5702.1 kPa, Liquid
  mass density: 1032.29 ± 1.1 kg/m3
358 K, 5755.2 kPa, Liquid
  mass density: 1034.16 ± 1.1 kg/m3
358 K, 5815.3 kPa, Liquid
  mass density: 1036.29 ± 1.1 kg/m3
358 K, 5871.8 kPa, Liquid
  mass density: 1038.22 ± 1.1 kg/m3
358 K, 5932.6 kPa, Liquid
  mass density: 1040.24 ± 1.1 kg/m3
358 K, 5991.6 kPa, Liquid
  mass density: 1042.28 ± 1.1 kg/m3
358 K, 6074.8 kPa, Liquid
  mass density: 1044.98 ± 1.1 kg/m3
358 K, 6112.3 kPa, Liquid
  mass density: 1046.22 ± 1.1 kg/m3
358 K, 6149.2 kPa, Liquid
  mass density: 1047.34 ± 1.1 kg/m3
358 K, 6186.4 kPa, Liquid
  mass density: 1048.47 ± 1.1 kg/m3
358 K, 6224.4 kPa, Liquid
  mass density: 1049.67 ± 1.1 kg/m3
358 K, 6266.3 kPa, Liquid
  mass density: 1050.92 ± 1.1 kg/m3
358 K, 6304.3 kPa, Liquid
  mass density: 1052.13 ± 1.1 kg/m3
358 K, 6342.4 kPa, Liquid
  mass density: 1053.2 ± 1.1 kg/m3
358 K, 6379.7 kPa, Liquid
  mass density: 1054.31 ± 1.1 kg/m3
358 K, 6416.4 kPa, Liquid
  mass density: 1055.29 ± 1.1 kg/m3
358 K, 6452.8 kPa, Liquid
  mass density: 1056.39 ± 1.1 kg/m3
358 K, 6490 kPa, Liquid
  mass density: 1057.54 ± 1.1 kg/m3
358 K, 6563.2 kPa, Liquid
  mass density: 1059.62 ± 1.1 kg/m3
358 K, 6600.1 kPa, Liquid
  mass density: 1060.63 ± 1.1 kg/m3
358 K, 6637.3 kPa, Liquid
  mass density: 1061.72 ± 1.1 kg/m3
358 K, 6674.3 kPa, Liquid
  mass density: 1062.71 ± 1.1 kg/m3
358 K, 6711.6 kPa, Liquid
  mass density: 1063.79 ± 1.1 kg/m3
358 K, 6747.9 kPa, Liquid
  mass density: 1064.77 ± 1.1 kg/m3
358 K, 6784.3 kPa, Liquid
  mass density: 1065.78 ± 1.1 kg/m3
358 K, 6821 kPa, Liquid
  mass density: 1066.78 ± 1.1 kg/m3
358 K, 6857.4 kPa, Liquid
  mass density: 1067.85 ± 1.1 kg/m3
358 K, 6894.7 kPa, Liquid
  mass density: 1068.84 ± 1.1 kg/m3
358 K, 6931.9 kPa, Liquid
  mass density: 1069.87 ± 1.1 kg/m3
358 K, 6970.4 kPa, Liquid
  mass density: 1070.83 ± 1.1 kg/m3
358 K, 7006.9 kPa, Liquid
  mass density: 1071.75 ± 1.1 kg/m3
358 K, 7152.9 kPa, Liquid
  mass density: 1075.52 ± 1.1 kg/m3
358 K, 7190.1 kPa, Liquid
  mass density: 1076.36 ± 1.1 kg/m3
358 K, 7228 kPa, Liquid
  mass density: 1077.43 ± 1.1 kg/m3
358 K, 7266.4 kPa, Liquid
  mass density: 1078.28 ± 1.1 kg/m3
358 K, 7303.8 kPa, Liquid
  mass density: 1079.27 ± 1.1 kg/m3
358 K, 7341.7 kPa, Liquid
  mass density: 1080.24 ± 1.1 kg/m3
358 K, 7379.5 kPa, Liquid
  mass density: 1081.09 ± 1.1 kg/m3
358 K, 7418.9 kPa, Liquid
  mass density: 1082.02 ± 1.1 kg/m3
358 K, 7494.3 kPa, Liquid
  mass density: 1083.92 ± 1.1 kg/m3
358 K, 7532.3 kPa, Liquid
  mass density: 1084.8 ± 1.1 kg/m3
358 K, 7568.4 kPa, Liquid
  mass density: 1085.67 ± 1.1 kg/m3
358 K, 7605.7 kPa, Liquid
  mass density: 1086.46 ± 1.1 kg/m3
358 K, 7643.1 kPa, Liquid
  mass density: 1087.34 ± 1.1 kg/m3
358 K, 7680.1 kPa, Liquid
  mass density: 1088.21 ± 1.1 kg/m3
358 K, 7718 kPa, Liquid
  mass density: 1089.17 ± 1.1 kg/m3
358 K, 7755.4 kPa, Liquid
  mass density: 1089.97 ± 1.1 kg/m3
358 K, 7792.1 kPa, Liquid
  mass density: 1090.77 ± 1.1 kg/m3
358 K, 7828.3 kPa, Liquid
  mass density: 1091.56 ± 1.1 kg/m3
358 K, 7903.4 kPa, Liquid
  mass density: 1093.29 ± 1.1 kg/m3
358 K, 7941.2 kPa, Liquid
  mass density: 1094.08 ± 1.1 kg/m3
358 K, 7980.6 kPa, Liquid
  mass density: 1094.93 ± 1.1 kg/m3
358 K, 8017.9 kPa, Liquid
  mass density: 1095.72 ± 1.1 kg/m3
358 K, 8056.1 kPa, Liquid
  mass density: 1096.58 ± 1.1 kg/m3
358 K, 8093.2 kPa, Liquid
  mass density: 1097.39 ± 1.1 kg/m3
358 K, 8130.7 kPa, Liquid
  mass density: 1098.19 ± 1.1 kg/m3
358 K, 8167.5 kPa, Liquid
  mass density: 1098.98 ± 1.1 kg/m3
358 K, 8204.2 kPa, Liquid
  mass density: 1099.77 ± 1.1 kg/m3
358 K, 8277.6 kPa, Liquid
  mass density: 1101.37 ± 1.1 kg/m3
358 K, 8354.7 kPa, Liquid
  mass density: 1102.88 ± 1.1 kg/m3
358 K, 8391 kPa, Liquid
  mass density: 1103.6 ± 1.1 kg/m3
358 K, 8427.7 kPa, Liquid
  mass density: 1104.39 ± 1.1 kg/m3
358 K, 8465.5 kPa, Liquid
  mass density: 1105.17 ± 1.1 kg/m3
358 K, 8503.3 kPa, Liquid
  mass density: 1105.96 ± 1.1 kg/m3
358 K, 8541.1 kPa, Liquid
  mass density: 1106.74 ± 1.1 kg/m3
358 K, 8614.7 kPa, Liquid
  mass density: 1108.07 ± 1.1 kg/m3
358 K, 8651.4 kPa, Liquid
  mass density: 1108.96 ± 1.1 kg/m3
358 K, 8689.1 kPa, Liquid
  mass density: 1109.62 ± 1.1 kg/m3
358 K, 8725.5 kPa, Liquid
  mass density: 1110.44 ± 1.1 kg/m3
358 K, 8762.8 kPa, Liquid
  mass density: 1111.12 ± 1.1 kg/m3
358 K, 8836.9 kPa, Liquid
  mass density: 1112.57 ± 1.1 kg/m3
358 K, 8873.4 kPa, Liquid
  mass density: 1113.15 ± 1.1 kg/m3
358 K, 8910.1 kPa, Liquid
  mass density: 1113.92 ± 1.1 kg/m3
358 K, 8946.4 kPa, Liquid
  mass density: 1114.65 ± 1.1 kg/m3
358 K, 8982.6 kPa, Liquid
  mass density: 1115.32 ± 1.1 kg/m3
358 K, 9019.5 kPa, Liquid
  mass density: 1115.96 ± 1.1 kg/m3
358 K, 9058.4 kPa, Liquid
  mass density: 1116.68 ± 1.2 kg/m3
358 K, 9094.5 kPa, Liquid
  mass density: 1117.44 ± 1.2 kg/m3
358 K, 9170.1 kPa, Liquid
  mass density: 1118.78 ± 1.2 kg/m3
358 K, 9207.6 kPa, Liquid
  mass density: 1119.39 ± 1.2 kg/m3
358 K, 9244 kPa, Liquid
  mass density: 1120.02 ± 1.2 kg/m3
358 K, 9318.1 kPa, Liquid
  mass density: 1121.42 ± 1.2 kg/m3
358 K, 9355.8 kPa, Liquid
  mass density: 1122.09 ± 1.2 kg/m3
358 K, 9393.2 kPa, Liquid
  mass density: 1122.82 ± 1.2 kg/m3
358 K, 9429.9 kPa, Liquid
  mass density: 1123.38 ± 1.2 kg/m3
358 K, 9506 kPa, Liquid
  mass density: 1124.84 ± 1.2 kg/m3
358 K, 9543.2 kPa, Liquid
  mass density: 1125.38 ± 1.2 kg/m3
358 K, 9579.6 kPa, Liquid
  mass density: 1126.21 ± 1.2 kg/m3
358 K, 9653.1 kPa, Liquid
  mass density: 1127.35 ± 1.2 kg/m3
358 K, 9689.3 kPa, Liquid
  mass density: 1128.07 ± 1.2 kg/m3
358 K, 9728 kPa, Liquid
  mass density: 1128.56 ± 1.2 kg/m3
358 K, 9764.4 kPa, Liquid
  mass density: 1129.27 ± 1.2 kg/m3
358 K, 9801.8 kPa, Liquid
  mass density: 1129.98 ± 1.2 kg/m3
358 K, 9839.1 kPa, Liquid
  mass density: 1130.57 ± 1.2 kg/m3
358 K, 9875.2 kPa, Liquid
  mass density: 1131.06 ± 1.2 kg/m3
358 K, 9913 kPa, Liquid
  mass density: 1131.87 ± 1.2 kg/m3
358 K, 9951.5 kPa, Liquid
  mass density: 1132.43 ± 1.2 kg/m3
358 K, 9988 kPa, Liquid
  mass density: 1133.16 ± 1.2 kg/m3
358.16 K, 4.9 kPa, Fluid (supercritical or subcritical phases)
  mass density: 0.14 ± 0.03 kg/m3
358.16 K, 5.8 kPa, Fluid (supercritical or subcritical phases)
  mass density: 0.15 ± 0.03 kg/m3
358.16 K, 6.2 kPa, Fluid (supercritical or subcritical phases)
  mass density: 0.17 ± 0.03 kg/m3

Reference: the NIST ThermoML archive (doi:10.1021/je900596d)
